# Data from ChEMBL document CHEMBL3992552, “Mechanisms of action and structure-activity relationships of cytotoxic flavokawain derivatives” (Bioorg Med Chem, 2017).
# The source made the active and inactive calls. No cut-off for these calls is given here.
# Legend:
# HaCaT [1] = test: Cell cycle arrest in human HaCaT cells harboring […] p53 assessed as mitotic index at 10 uM measured after 48 hrs by Hoechst staining based fluorescence assay (reference value: 2.6); type: functional
# PC-3 [2] = test: Cell cycle arrest in human PC3 cells harboring p53 mutant assessed as mitotic index at 10 uM measured after 48 hrs by Hoechst staining based fluorescence assay (reference value: 2.5); type: functional
# Fibroblast = test: Cytotoxicity against human fibroblasts assessed as cell viability after 48 hrs by Hoechst 33342 staining based assay
# MDA-MB-231 [3] = test: Cell cycle arrest in human MDA-MB-231 cells harboring p53 mutant assessed as mitotic index at 10 uM measured after 48 hrs by Hoechst staining based fluorescence assay (reference value: 2.1); type: functional
# [4] = Selectivity index, ratio of IC50 for human fibroblasts to IC50 for human Caco2 cells
# NCI-H727 [5] = test: Cell cycle arrest in human NCI-H727 cells harboring p53 mutant assessed as mitotic index at 10 uM measured after 48 hrs by Hoechst staining based fluorescence assay (reference value: 1.1); type: functional
# Huh-7 [6] = test: Cell cycle arrest in human HuH7 cells assessed as mitotic index at 10 uM measured after 48 hrs by Hoechst staining based fluorescence assay (reference value: 2.2); type: functional
# MDA-MB-231 [7] = test: Cytotoxicity against human MDA-MB-231 cells assessed as cell survival at 50 uM after 48 hrs by Hoechst 33342 staining based assay relative to control; type: functional; conditions: MDA-MB-231, 48 h, read-out: Survival
# Huh-7 [8] = test: Cytotoxicity against human HuH7 cells assessed as cell viability after 48 hrs by Hoechst 33342 staining based assay; type: functional; conditions: Huh-7, 48 h
# HaCaT [9] = test: Cell cycle arrest in human HaCaT cells harboring […] p53 assessed as accumulation at S phase at 25 uM measured after 48 hrs by Hoechst/BrdU staining based fluorescence assay (reference value: 52.3%); type: functional
# PC-3 [10] = test: Induction of apoptosis in human PC3 cells harboring p53 mutant assessed as upregulation of cyclinB1 after 48 hrs by Hoechst staining based assay; type: functional, cell-based
# HCT-116 [11] = test: Cell cycle arrest in human HCT116 cells harboring wild-type p53 assessed as mitotic index at 25 uM measured after 48 hrs by Hoechst staining based fluorescence assay (reference value: 2.3); type: functional
# NCI-H727 [12] = test: Cell cycle arrest in human NCI-H727 cells assessed as accumulation at G1/S phase by Hoechst staining based fluorescence assay; type: functional
# HaCaT [13] = test: Cell cycle arrest in human HaCaT cells assessed as accumulation at M phase by Hoechst staining based fluorescence assay; type: functional
# [14] = Selectivity index, ratio of IC50 for human fibroblasts to IC50 for human MCF7 cells
# HCT-116 [15] = test: Cell cycle arrest in human HCT116 cells harboring wild-type p53 assessed as accumulation at S phase at 10 uM measured after 48 hrs by Hoechst/BrdU staining based fluorescence assay (reference value: 68.4%); type: functional
# HCT-116 [16] = test: Cell cycle arrest in human HCT116 cells harboring wild-type p53 assessed as accumulation at S phase at 25 uM measured after 48 hrs by Hoechst/BrdU staining based fluorescence assay (reference value: 68.4%); type: functional
# PC-3 [17] = test: Induction of apoptosis in human PC3 cells harboring p53 mutant assessed as increase in early apoptosis at 2 times IC50 after 48 hrs by YoPro/propidium iodide/Hoechst staining based assay; type: functional, cell-based
# NCI-H727 [18] = test: Cell cycle arrest in human NCI-H727 cells harboring p53 mutant assessed as accumulation at S phase at 10 uM measured after 48 hrs by Hoechst/BrdU staining based fluorescence assay (reference value: 40.3%); type: functional
# MDA-MB-231 [19] = test: Cell cycle arrest in human MDA-MB-231 cells harboring p53 mutant assessed as accumulation at S phase at 25 uM measured after 48 hrs by Hoechst/BrdU staining based fluorescence assay (reference value: 42.2%); type: functional
# Caco-2 [20] = test: Cell cycle arrest in human Caco2 cells assessed as accumulation at S phase at 10 uM measured after 48 hrs by Hoechst/BrdU staining based fluorescence assay (reference value: […]); type: functional
# HCT-116 [21] = test: Induction of apoptosis in human HCT116 cells harboring wild-type p53 assessed as increase in late apoptosis at 2 times IC50 after 48 hrs by YoPro/propidium iodide/Hoechst staining based assay; type: functional, cell-based
# PC-3 [22] = test: Cell cycle arrest in human PC3 cells harboring p53 mutant assessed as mitotic index at 25 uM measured after 48 hrs by Hoechst staining based fluorescence assay (reference value: 2.5); type: functional
# HaCaT [23] = test: Cell cycle arrest in human HaCaT cells harboring […] p53 assessed as mitotic index at 25 uM measured after 48 hrs by Hoechst staining based fluorescence assay (reference value: 2.6); type: functional
# [24] = Selectivity index, ratio of IC50 for human fibroblasts to IC50 for human HuH7 cells
# PC-3 [25] = test: Cell cycle arrest in human PC3 cells assessed as accumulation at M phase by Hoechst staining based fluorescence assay; type: functional
# Huh-7 [26] = test: Cell cycle arrest in human HuH7 cells assessed as mitotic index at 25 uM measured after 48 hrs by Hoechst staining based fluorescence assay (reference value: 2.2); type: functional
# PC-3 [27] = test: Cell cycle arrest in human PC3 cells harboring p53 mutant assessed as accumulation at S phase at 25 uM measured after 48 hrs by Hoechst/BrdU staining based fluorescence assay (reference value: 40.8%); type: functional
# MDA-MB-231 [28] = test: Cell cycle arrest in human MDA-MB-231 cells harboring p53 mutant assessed as mitotic index at 25 uM measured after 48 hrs by Hoechst staining based fluorescence assay (reference value: 2.1); type: functional
# HCT-116 [29] = test: Induction of apoptosis in human HCT116 cells harboring wild-type p53 assessed as upregulation of cyclinB1 measured after 48 hrs by Hoechst staining based assay; type: functional, cell-based
# MCF7 [30] = test: Induction of apoptosis in human MCF7 cells harboring wild-type p53 assessed as upregulation of p21 measured after 48 hrs by Hoechst staining based fluorescence assay; type: functional, cell-based
# Caco-2 [31] = test: Cell cycle arrest in human Caco2 cells assessed as accumulation at M phase by Hoechst staining based fluorescence assay; type: functional
# PC-3 [32] = test: Cytotoxicity against human PC3 cells assessed as cell viability after 48 hrs by Hoechst 33342 staining based assay; type: functional; conditions: PC-3, 48 h
# PC-3 [33] = test: Induction of apoptosis in human PC3 cells harboring p53 mutant assessed as increase in cleaved caspase3 at 2 times IC50 after 48 hrs by Hoechst staining based assay; type: functional, cell-based
# MCF7 [34] = test: Induction of apoptosis in human MCF7 cells harboring wild-type p53 assessed as increase in late apoptosis at 2 times IC50 after 24 hrs by YoPro/propidium iodide/Hoechst staining based assay; type: functional, cell-based
# HCT-116 [35] = test: Induction of apoptosis in human HCT116 cells harboring wild-type p53 assessed as upregulation of p21 measured after 48 hrs by Hoechst staining based fluorescence assay; type: functional, cell-based
# [36] = Selectivity index, ratio of IC50 for human fibroblasts to IC50 for human MDA-MB-231 cells
# MDA-MB-231 [37] = test: Induction of apoptosis in human MDA-MB-231 cells harboring p53 mutant assessed as increase in cleaved caspase3 at 2 times IC50 after 24 hrs by Hoechst staining based assay; type: functional, cell-based
Structure (SMILES),Activity_index (PC-3 [2]),IC50 (Fibroblast),Ratio IC50 [4],viability at 50 µM (MDA-MB-231 [7]),IC50 (Huh-7 [8]),Activity (HaCaT [9]),Activity (PC-3 [10]),Activity_index (HCT-116 [11]),Ratio IC50 [14],Activity (HCT-116 [15]),Activity (HCT-116 [16]),Activity (PC-3 [17]),Activity (NCI-H727 [18]),Activity (MDA-MB-231 [19]),Activity (Caco-2 [20]),Activity (HCT-116 [21]),Activity_index (PC-3 [22]),Activity (PC-3 [27]),Activity (HCT-116 [29]),Activity (MCF7 [30]),also measured
COc1cc(O)c(C(=O)/C=C/c2ccccc2SC)c(OC)c1,4.4,> 20 µM,3.8,39%,16.6 µM,30%,Active,1.3,2.3,52%,28%,Active,43%,inactive,50%,Active,7.6,31%,Active,Active,Activity_index (HaCaT [1]): 3.1; Activity (MDA-MB-231 [3]): inactive; Activity_index (NCI-H727 [5]): 0.9; Activity_index (Huh-7 [6]): 2.3; Activity (NCI-H727 [12]): Active; Activity (HaCaT [13]): Active; Activity_index (HaCaT [23]): 7.8; Ratio IC50 [24]: 2.2; Activity (PC-3 [25]): Active; Activity_index (Huh-7 [26]): 5.3; Activity (MDA-MB-231 [28]): inactive; Activity (Caco-2 [31]): Active; IC50 (PC-3 [32]): 8.7 µM; Activity (PC-3 [33]): Active; Activity (MCF7 [34]): Active; Activity (HCT-116 [35]): Active
COc1cc(O)c(C(=O)/C=C/c2ccc(F)cc2)c(OC)c1,2.9,> 20 µM,>5.4,69%,> 20 µM,inactive,Active,0.7,>5.7,59%,28%,Active,inactive,inactive,49%,Active,5.3,34%,Active,Active,Activity (HaCaT [1]): inactive; Activity (MDA-MB-231 [3]): inactive; Activity (NCI-H727 [5]): inactive; Activity (Huh-7 [6]): inactive; Activity (HaCaT [23]): inactive; Activity (PC-3 [25]): Active; Activity (Huh-7 [26]): inactive; Activity (MDA-MB-231 [28]): inactive; Activity (Caco-2 [31]): Active; IC50 (PC-3 [32]): 13.2 µM; Activity (PC-3 [33]): Active; Activity (MCF7 [34]): Active; Activity (HCT-116 [35]): Active
COc1cc(O)c(C(=O)/C=C/c2ccccc2OC)c(OC)c1,2.9,> 20 µM,3.6,37%,> 20 µM,29%,Active,1.8,3.5,42%,27%,Active,43%,inactive,46%,Active,7.2,24%,Active,Active,Activity_index (HaCaT [1]): 3.1; Activity (MDA-MB-231 [3]): inactive; Activity_index (NCI-H727 [5]): 1; Activity (Huh-7 [6]): inactive; Activity (NCI-H727 [12]): Active; Activity (HaCaT [13]): Active; Activity_index (HaCaT [23]): 8.4; Activity (PC-3 [25]): Active; Activity (Huh-7 [26]): inactive; Activity (MDA-MB-231 [28]): inactive; Activity (Caco-2 [31]): Active; IC50 (PC-3 [32]): 9.6 µM; Activity (PC-3 [33]): Active; Activity (MCF7 [34]): Active; Activity (HCT-116 [35]): Active
COc1cc(O)c(C(=O)/C=C/c2ccccc2)c(OC)c1 [FLAVOKAWAIN B],4.2,> 20 µM,2.7,19%,15.9 µM,21%,Active,0.6,1.7,37%,28%,Active,39%,40%,42%,Active,2,20%,Active,Active,Activity_index (HaCaT [1]): 3.4; Activity_index (MDA-MB-231 [3]): 5.2; Activity_index (NCI-H727 [5]): 0.8; Activity_index (Huh-7 [6]): 2.2; Ratio IC50 [36]: 1.6; Activity (NCI-H727 [12]): Active; Activity (MDA-MB-231 [37]): Active; Activity_index (HaCaT [23]): 0.9; Ratio IC50 [24]: 1.7; Activity_index (Huh-7 [26]): 1.7; Activity_index (MDA-MB-231 [28]): 6.8; Activity (Caco-2 [31]): Active; IC50 (PC-3 [32]): 9.1 µM; Activity (PC-3 [33]): Active; Activity (MCF7 [34]): Active; Activity (HCT-116 [35]): Active
COc1cccc(/C=C/C(=O)c2c(O)cc(OC)cc2OC)c1,4.4,> 20 µM,2.4,11%,15 µM,8%,Active,0.3,2.6,30%,37%,Active,35%,38%,31%,Active,0.4,9.4%,Active,Active,Activity_index (HaCaT [1]): 2.6; Activity_index (MDA-MB-231 [3]): 4.2; Activity_index (NCI-H727 [5]): 1.2; Activity_index (Huh-7 [6]): 1.6; Ratio IC50 [36]: 2; Activity (NCI-H727 [12]): Active; Activity (MDA-MB-231 [37]): Active; Activity_index (HaCaT [23]): 0.1; Ratio IC50 [24]: 1.8; Activity (PC-3 [25]): Active; Activity_index (Huh-7 [26]): 0.1; Activity_index (MDA-MB-231 [28]): 3.6; Activity (Caco-2 [31]): Active; IC50 (PC-3 [32]): 7.3 µM; Activity (PC-3 [33]): Active; Activity (MCF7 [34]): Active; Activity (HCT-116 [35]): Active
